{"source": "the supplement of paper PMC10307832", "assay_in_all_cases": "relative viability (nuclei count vs DMSO), 5 days (fraction); higher = more cells survive", "key": {"Ponatinib + Alpelisib": {"compound": "Cc1ccc(C(=O)Nc2ccc(CN3CCN(C)CC3)c(C(F)(F)F)c2)cc1C#Cc1cnc2cccnn12 [Ponatinib] + Cc1nc(NC(=O)N2CCC[C@H]2C(N)=O)sc1-c1ccnc(C(C)(C)C(F)(F)F)c1 [Alpelisib] (partner 2 µM)", "outline": "(§1)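 Relative viability is defined as nuclei in treated wells over nuclei in vehicle wells. Duplicate plates were run and medians reported. Lung cancer cell lines in 1536-well plates were dosed by pin tool one day after seeding, with one drug or with a fixed anchor-drug dose plus five library-drug doses (not always all listed) in √10 steps, and nuclei were counted after 5 days.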"}, "Ponatinib + Phenformin": {"compound": "Cc1ccc(C(=O)Nc2ccc(CN3CCN(C)CC3)c(C(F)(F)F)c2)cc1C#Cc1cnc2cccnn12 [Ponatinib] + N=C(N)NC(=N)NCCc1ccccc1 [Phenformin] (partner 250 µM)", "outline": "as §1"}, "Pazopanib + Alpelisib": {"compound": "Cc1ccc(Nc2nccc(N(C)c3ccc4c(C)n(C)nc4c3)n2)cc1S(N)(=O)=O [Pazopanib] + Cc1nc(NC(=O)N2CCC[C@H]2C(N)=O)sc1-c1ccnc(C(C)(C)C(F)(F)F)c1 [Alpelisib] (partner 2 µM)", "outline": "as §1"}, "Pazopanib + Pemetrexed": {"compound": "Cc1ccc(Nc2nccc(N(C)c3ccc4c(C)n(C)nc4c3)n2)cc1S(N)(=O)=O [Pazopanib] + Nc1nc2[nH]cc(CCc3ccc(C(=O)N[C@@H](CCC(=O)O)C(=O)O)cc3)c2c(=O)[nH]1 [Pemetrexed] (partner 0.2 µM)", "outline": "as §1"}}, "data": [{"cell line": "UMC-11", "values": [{"measurement": "relative viability", "setting": "Ponatinib + Alpelisib; first compound 0.002 µM", "value": 1.07}, {"measurement": "relative viability", "setting": "Ponatinib + Alpelisib; first compound 0.006325 µM", "value": 1.04}, {"measurement": "relative viability", "setting": "Ponatinib + Alpelisib; first compound 0.06325 µM", "value": 1.01}, {"measurement": "relative viability", "setting": "Ponatinib + Alpelisib; first compound 0.2 µM", "value": 0.951}, {"measurement": "relative viability", "setting": "Ponatinib + Phenformin; first compound 0.002 µM", "value": 0.305}, {"measurement": "relative viability", "setting": "Ponatinib + Phenformin; first compound 0.006325 µM", "value": 0.33}, {"measurement": "relative viability", "setting": "Ponatinib + Phenformin; first compound 0.06325 µM", "value": 0.366}, {"measurement": "relative viability", "setting": "Ponatinib + Phenformin; first compound 0.2 µM", "value": 0.317}, {"measurement": "relative viability", "setting": "Pazopanib + Alpelisib; first compound 0.01 µM", "value": 1.02}, {"measurement": "relative viability", "setting": "Pazopanib + Alpelisib; first compound 0.03162 µM", "value": 1.05}, {"measurement": "relative viability", "setting": "Pazopanib + Alpelisib; first compound 0.1 µM", "value": 0.804}, {"measurement": "relative viability", "setting": "Pazopanib + Alpelisib; first compound 0.3162 µM", "value": 0.948}, {"measurement": "relative viability", "setting": "Pazopanib + Alpelisib; first compound 1 µM", "value": 1.12}, {"measurement": "relative viability", "setting": "Pazopanib + Pemetrexed; first compound 0.01 µM", "value": 0.743}, {"measurement": "relative viability", "setting": "Pazopanib + Pemetrexed; first compound 0.03162 µM", "value": 0.908}, {"measurement": "relative viability", "setting": "Pazopanib + Pemetrexed; first compound 0.1 µM", "value": 0.871}, {"measurement": "relative viability", "setting": "Pazopanib + Pemetrexed; first compound 0.3162 µM", "value": 0.701}, {"measurement": "relative viability", "setting": "Pazopanib + Pemetrexed; first compound 1 µM", "value": 0.844}]}]}
